Structures can show the parent of a compound that is named as a salt. Some results are limits rather than exact numbers.

Our source for the IC50 values is patent US10479795B2 (Incyte Corporation, priority 2016, dated 2019).

For this experiment, the target named is PI3Kγ (p110γ) Recombinant Human Protein (Homo sapiens (Human), UniProt P48736). The experiment in a line: PI3K-γ Scintillation Proximity Assay. Format: biochemical. The conditions noted are these: read-out: PI3Kγ IC50. On the procedure: [γ-^33P]ATP (10 mCi/mL) and Wheat Germ Agglutinin (WGA) YSi SPA Scintillation Beads was purchased from Perkin-Elmer (Waltham, Mass.). […] PI3Kγ (p110γ) Recombinant Human Protein was purchased from Life technology (Grand Island, N.Y.). ATP, MgCl2, DTT, EDTA, MOPS and CHAPS were purchased from Sigma-Aldrich (St. Louis, Mo.).
PI3Kγ (p110γ) Recombinant Human Protein, sequence (P48736 whole entry): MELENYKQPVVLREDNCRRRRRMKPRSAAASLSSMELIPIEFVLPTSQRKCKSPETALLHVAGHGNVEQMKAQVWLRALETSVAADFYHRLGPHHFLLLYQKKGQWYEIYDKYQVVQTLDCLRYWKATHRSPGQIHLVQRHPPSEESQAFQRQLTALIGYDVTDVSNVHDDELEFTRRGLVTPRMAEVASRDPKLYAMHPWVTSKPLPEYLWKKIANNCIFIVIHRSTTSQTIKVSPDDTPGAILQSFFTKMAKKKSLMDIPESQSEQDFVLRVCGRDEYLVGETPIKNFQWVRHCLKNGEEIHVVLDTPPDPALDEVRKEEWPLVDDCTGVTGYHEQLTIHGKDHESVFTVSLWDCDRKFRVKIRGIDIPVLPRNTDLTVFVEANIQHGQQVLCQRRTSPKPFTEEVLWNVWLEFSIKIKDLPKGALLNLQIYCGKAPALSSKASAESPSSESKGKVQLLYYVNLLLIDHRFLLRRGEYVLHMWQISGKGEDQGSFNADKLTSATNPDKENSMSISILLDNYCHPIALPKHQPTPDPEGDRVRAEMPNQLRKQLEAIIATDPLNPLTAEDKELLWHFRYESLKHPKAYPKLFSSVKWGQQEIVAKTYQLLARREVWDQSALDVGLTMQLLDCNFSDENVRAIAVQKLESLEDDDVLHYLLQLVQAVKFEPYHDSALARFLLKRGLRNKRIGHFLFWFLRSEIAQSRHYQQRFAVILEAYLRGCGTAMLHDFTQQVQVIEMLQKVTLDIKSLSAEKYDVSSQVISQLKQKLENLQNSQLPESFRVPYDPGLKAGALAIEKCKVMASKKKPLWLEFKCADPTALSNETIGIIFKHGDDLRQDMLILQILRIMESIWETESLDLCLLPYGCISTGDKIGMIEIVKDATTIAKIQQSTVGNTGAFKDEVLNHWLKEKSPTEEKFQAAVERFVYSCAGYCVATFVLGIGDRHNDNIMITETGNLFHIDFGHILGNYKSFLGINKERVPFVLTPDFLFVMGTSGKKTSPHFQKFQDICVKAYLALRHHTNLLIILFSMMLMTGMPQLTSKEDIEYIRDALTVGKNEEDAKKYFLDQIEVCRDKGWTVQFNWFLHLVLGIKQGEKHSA
The kinase reaction was conducted in polystyrene 384-well Greiner Bio-one white plate from Thermo Fisher Scientific in a final volume of 25 μL. Inhibitors were first diluted serially in DMSO and added to the plate wells before the addition of other reaction components. The final concentration of DMSO in the assay was 2%. The PI3Kγ assay was carried out at room temperature in 20 mM MOPS, pH 6.7, 10 mM MgCl2, 5 mM DTT and CHAPS 0.03%. Reactions were initiated by the addition of ATP, the final reaction mixture consisted of 20 μM PIP2, 2 μM ATP, 0.5 μCi [γ-^33P] […] The final concentration of SPA beads is 1.0 mg/mL. After the plate sealing, plates were shaken overnight at room temperature and centrifuged at 1500 rpm for 10 min, the radioactivity of the product was determined by scintillation counting on Topcount (Perkin-Elmer). IC50 determination was performed by fitting the curve of percent of the solvent control activity versus the log of the inhibitor concentration using the GraphPad Prism 6.0 software.
(In a scintillation proximity assay essentially only radioactivity close to the scintillant gives light.)
On to `Cc1ccc(S(=O)(=O)N(C)c2ccncc2)cc1-c1cnc2c(N)ncnn12` [Example 247, 3-(4-aminoimidazo[2,1-f][1,2,4]triazin-7-yl)-N,4-dimethyl-N-(pyridin-4-yl)benzenesulfonamide], for which the 50% inhibitory concentration (IC50) was < 100 nM.
For `Cc1ccc(S(=O)(=O)NC(c2ccccn2)C(F)(F)F)cc1-c1cnc2c(N)ncnn12` (stereo not shown) [Example 234, 3-(4-aminoimidazo[2,1-f][1,2,4]triazin-7-yl)-4-methyl-N-(2,2,2-trifluoro-1-(pyridin-2-yl)ethyl)benzenesulfonamide], the IC50 lay within 100 to 500 nM.
Next, `Cc1ccc(S(=O)(=O)NC2(C)CCCN(C(C)C)C2)cc1-c1cnc2c(N)nc(C(F)(F)F)nn12` (stereo not shown) [Example 527, 3-(4-Amino-2-(trifluoromethyl)imidazo[2,1-f][1,2,4]triazin-7-yl)-N-(1-isopropyl-3-methylpiperidin-3-yl)-4-methylbenzenesulfonamide trifluoroacetate]: < 100 nM; `Cc1ccc(S(=O)(=O)NC2(C)CCCN(C)C2)cc1-c1cnc2c(N)nc(C(F)(F)F)nn12` (stereo not shown) [Example 526, 3-(4-Amino-2-(trifluoromethyl)imidazo[2,1-f][1,2,4]triazin-7-yl)-N-(1,3-dimethylpiperidin-3-yl)-4-methylbenzenesulfonamide trifluoroacetate]: < 100 nM; `Cc1ccc(S(=O)(=O)NCc2cccc(C(F)(F)F)n2)cc1-c1cnc2c(N)ncnn12` [Example 235, 3-(4-aminoimidazo[2,1-f][1,2,4]triazin-7-yl)-4-methyl-N-((6-(trifluoromethyl)pyridin-2-yl)methyl)benzenesulfonamide]: < 100 nM.
`Cc1ccc(S(=O)(=O)NC2(C)CCN(C)C2)cc1-c1cnc2c(N)nc(C(F)(F)F)nn12` (stereo not shown) [Example 533, 3-(4-Amino-2-(trifluoromethyl)imidazo[2,1-f][1,2,4]triazin-7-yl)-N-(1,3-dimethylpyrrolidin-3-yl)-4-methylbenzenesulfonamide trifluoroacetate]: the half-maximal inhibitory concentration (IC50) was < 100 nM.
Next, `Cc1ccc(S(=O)(=O)NC23CCCC(C#N)(C2)C3)cc1-c1cnc2c(N)ncnn12` [Example 520, 3-(4-Aminoimidazo[2,1-f][1,2,4]triazin-7-yl)-N-(5-cyanobicyclo[3.1.1]heptan-1-yl)-4-methylbenzenesulfonamide trifluoroacetate]: < 100 nM.
Next, `Cc1ccc(S(=O)(=O)NC(CN)C2CC2)cc1-c1cnc2c(N)ncnn12` (stereo not shown) [Example 238, N-(2-amino-1-cyclopropylethyl)-3-(4-aminoimidazo[2,1-f][1,2,4]triazin-7-yl)-4-methylbenzenesulfonamide]: 100 to 500 nM; `Cc1ccc(S(=O)(=O)NCc2cnccn2)cc1-c1cnc2c(N)nc(C(F)(F)F)nn12` [Example 358, 3-(4-amino-2-(trifluoromethyl)imidazo[2,1-f][1,2,4]triazin-7-yl)-4-methyl-N-(pyrazin-2-ylmethyl)benzenesulfonamide]: < 100 nM; `Cc1ccc(S(=O)(=O)N2CCN(c3ccc(C#N)cn3)CC2)cc1-c1cnc2c(N)ncnn12` [Example 232, 6-(4-((3-(4-aminoimidazo[2,1-f][1,2,4]triazin-7-yl)-4-methylphenyl)sulfonyl)piperazin-1-yl)nicotinonitrile]: < 100 nM.
As for `CC(=O)Nc1ccc(NS(=O)(=O)c2ccc(C)c(-c3cnc4c(N)ncnn34)c2)cn1` [Example 244, N-(5-((3-(4-aminoimidazo[2,1-f][1,2,4]triazin-7-yl)-4-methylphenyl)sulfonamido)pyridin-2-yl)acetamide], the figure is < 100 nM; as for `Cc1ccc(S(=O)(=O)N2CCn3cnc(C(=O)NCC(F)(F)F)c3C2)cc1-c1cnc2c(N)ncnn12` [Example 241, 7-((3-(4-aminoimidazo[2,1-f][1,2,4]triazin-7-yl)-4-methylphenyl)sulfonyl)-N-(2,2,2-trifluoroethyl)-5,6,7,8-tetrahydroimidazo[1,5-a]pyrazine-1-carboxamide], < 100 nM.
As to `Cc1ccc(S(=O)(=O)NC23C4C5C2C2C3C4C52C#N)cc1-c1cnc2c(N)ncnn12` (stereo not shown) [Example 534, 3-(4-Aminoimidazo[2,1-f][1,2,4]triazin-7-yl)-N-(4-cyanocuban-1-yl)-4-methylbenzenesulfonamide trifluoroacetate], the IC50 is < 100 nM.
`Cc1ccc(S(=O)(=O)NC(C)(C)CN2CCCC2)cc1-c1cnc2c(N)ncnn12` [Example 239, 3-(4-aminoimidazo[2,1-f][1,2,4]triazin-7-yl)-4-methyl-N-(2-methyl-1-(pyrrolidin-1-yl)propan-2-yl)benzenesulfonamide]: the half-inhibitory concentration (IC50) was in the range of 500 to 2000 nM.
Next, `Cc1ccc(S(=O)(=O)N2CCCC(C(F)(F)F)C2)cc1-c1cnc2c(N)ncnn12` (stereo not shown) [Example 218, 7-(2-methyl-5-((3-(trifluoromethyl)piperidin-1-yl)sulfonyl)phenyl)imidazo[2,1-f][1,2,4]triazin-4-amine]: < 100 nM; `Cc1ccc(S(=O)(=O)NC23CCCC(C(C)N4CC(C#N)C4)(C2)C3)cc1-c1cnc2c(N)ncnn12` (stereo not shown) [Example 522, 3-(4-Aminoimidazo[2,1-f][1,2,4]triazin-7-yl)-N-(5-(1-(3-cyanoazetidin-1-yl)ethyl)bicyclo[3.1.1]heptan-1-yl)-4-methylbenzenesulfonamide trifluoroacetate]: < 100 nM; `Cc1ccc(S(=O)(=O)N2CCN(c3ncccn3)CC2)cc1-c1cnc2c(N)ncnn12` [Example 230, 7-(2-methyl-5-((4-(pyrimidin-2-yl)piperazin-1-yl)sulfonyl)phenyl)imidazo[2,1-f][1,2,4]triazin-4-amine]: < 100 nM.
Consider `Cc1ccc(S(=O)(=O)NCc2ccnn2C)cc1-c1cnc2c(N)ncnn12` [Example 236, 3-(4-aminoimidazo[2,1-f][1,2,4]triazin-7-yl)-4-methyl-N-((1-methyl-1H-pyrazol-5-yl)methyl)benzenesulfonamide], for which the half-inhibitory concentration (IC50) was < 100 nM.
Next, `Cc1ccc(S(=O)(=O)NC2(C)CN(C)C2)cc1-c1cnc2c(N)nc(C(F)(F)F)nn12` [Example 532, 3-(4-Amino-2-(trifluoromethyl)imidazo[2,1-f][1,2,4]triazin-7-yl)-N-(1,3-dimethylazetidin-3-yl)-4-methylbenzenesulfonamide]: < 100 nM.
Next, `Cc1ccc(S(=O)(=O)NC23C4C5C2C2C3C4C52C(C)(C)O)cc1-c1cnc2c(N)ncnn12` (stereo not shown) [Example 535, 3-(4-Aminoimidazo[2,1-f][1,2,4]triazin-7-yl)-N-(4-(2-hydroxypropan-2-yl)cuban-1-yl)-4-methylbenzenesulfonamide trifluoroacetate]: < 100 nM; `Cc1ccc(S(=O)(=O)N2CCc3nc[nH]c3C2)cc1-c1cnc2c(N)ncnn12` [Example 224, 7-(2-methyl-5-((3,4,6,7-tetrahydro-5H-imidazo[4,5-c]pyridin-5-yl)sulfonyl)phenyl)imidazo[2,1-f][1,2,4]triazin-4-amine]: < 100 nM; `Cc1ccc(S(=O)(=O)Nc2cc3cn[nH]c3cn2)cc1-c1cnc2c(N)ncnn12` [Example 243, 3-(4-aminoimidazo[2,1-f][1,2,4]triazin-7-yl)-4-methyl-N-(1H-pyrazolo[3,4-c]pyridin-5-yl)benzenesulfonamide]: < 100 nM.
`Cc1ccc(S(=O)(=O)N2CCn3ncc(C#N)c3C2)cc1-c1cnc2c(N)ncnn12` [Example 240, 5-((3-(4-aminoimidazo[2,1-f][1,2,4]triazin-7-yl)-4-methylphenyl)sulfonyl)-4,5,6,7-tetrahydropyrazolo[1,4-a]pyrazine-3-carbonitrile]: the IC50 was < 100 nM.
On to `Cc1ccc(S(=O)(=O)N2CCC(C#N)CC2)cc1-c1cnc2c(N)ncnn12` [Example 217, 1-((3-(4-aminoimidazo[2,1-f][1,2,4]triazin-7-yl)-4-methylphenyl)sulfonyl)piperidine-4-carbonitrile], for which the IC50 was < 100 nM.
Next, `Cc1ccc(S(=O)(=O)N2CCN(c3nccnc3C#N)CC2)cc1-c1cnc2c(N)ncnn12` [Example 231, 3-(4-((3-(4-aminoimidazo[2,1-f][1,2,4]triazin-7-yl)-4-methylphenyl)sulfonyl)piperazin-1-yl)pyrazine-2-carbonitrile]: < 100 nM; `Cc1ccc(S(=O)(=O)N2CCCn3nccc32)cc1-c1cnc2c(N)ncnn12` [Example 215, 7-(5-((6,7-dihydropyrazolo[1,5-a]pyrimidin-4(5H)-yl)sulfonyl)-2-methylphenyl)imidazo[2,1-f][1,2,4]triazin-4-amine]: < 100 nM.
Next, `Cc1ccc(S(=O)(=O)N2CCN(C)C(=O)C2)cc1-c1cnc2c(N)ncnn12` [Example 228, 4-((3-(4-aminoimidazo[2,1-f][1,2,4]triazin-7-yl)-4-methylphenyl)sulfonyl)-1-methylpiperazin-2-one]: < 100 nM; `COc1ccc(NS(=O)(=O)c2ccc(C)c(-c3cnc4c(N)ncnn34)c2)c(C)n1` [Example 246, 3-(4-aminoimidazo[2,1-f][1,2,4]triazin-7-yl)-N-(6-methoxy-2-methylpyridin-3-yl)-4-methylbenzenesulfonamide]: < 100 nM.

The term IC50 denotes the concentration needed to halve the response being measured.
